Results as given in patent publication EP0430025A2, “Xanthine compound, method for preparing thereof, and a pharmaceutical composition comprising the same” (HOKURIKU PHARMACEUTICAL CO., LTD., priority 1989, dated 1991).

What was measured:
[1] = system: isolated dog mesenteric artery; test: Relaxation activity in the isolated dog mesenteric artery (pre-contracted with prostaglandin F2α); settings: for EC50: Canis lupus familiaris, 50% of maximal relaxation (10⁻⁴M papaverine), pre-contracted with prostaglandin F₂α 3 × 10⁻⁶ M, 37°C, read-out: relaxation activity in the isolated dog mesenteric artery ED₅₀; for relative effectiveness of the compounds to reference B: dog mesenteric artery ED₅₀ relative to reference compound B (propentofylline) = 1
Protocol: The mesenteric arteries were isolated from mongrel dogs of either sex weighing about 10kg. Each helical strip (2 mm in width and 20 mm in length) was mounted vertically in an organ bath containing Krebs-Henseleit solution. The bath medium was maintained at 37 °C and was equilibrated with a gas mixture consisting of 95% O₂ and 5% […]. A resting tension of 1.0 g was applied and the response was recorded isometrically. The preparations were pre-contracted with prostaglandin F₂ α (3 × 10⁻⁶ M) and the smooth muscle relaxations induced by the test compounds were recorded. The test compounds were added cumulatively to the bath. ED₅₀ values representing the amount of the compound which produces 50% relaxations of the maximal relaxations (10 ⁻⁴M papaverine) were caluculated on the basis of the results obtained above.

[2] = system: isolated guinea-pig trachea; test: Relaxation activity in the isolated guinea-pig trachea (resting tonus, organ bath); settings: for EC50: Cavia porcellus, 50% of maximal relaxation (10⁻⁶M isoproterenol), resting tonus, cumulative addition, 37°C, read-out: relaxation activity in the isolated guinea-pig trachea ED₅₀; for relative effectiveness of the compounds to reference A: guinea-pig trachea ED₅₀ relative to reference compound A (theophylline) = 1
Protocol: Male Hartley guinea-pigs weighing about 500 g were sacrificed and the trachea were removed. The tracheal chain strips were made and the preparations were mounted vertically in an organ bath containing Locke-Ringer solution. The bath medium was maintained at 37°C and was equilibrated with a gas mixture consisting of 95% O₂ and 5% CO₂. Relaxation activities of the test compounds on the resting tonus of the preparations were recorded isotonically. The test compounds were added cumulatively to the bath. ED₅₀ values representing the amount of the compound tested which produces 50% relaxations of the maximal relaxations (10⁻⁶M isoproterenol) were calculated on the basis of the results obtained above.

[3] = system: isolated guinea-pig atria; test: Chronotropic activity in the isolated guinea-pig atrium (spontaneous beating rate of right atrium); settings: 15% increase of spontaneous beating rate of right atrium; cumulative addition; 30°C
Protocol: Male Hartley guinea-pig weighing about 500 g was sacrificed and the right atrium was removed. The atrium was mounted vertically in an organ bath containing Krebs-Henseleit solution. The bath medium was maintained at 30°C and was equilibrated with a gas mixture consisting of 95% 0₂ and 5% CO₂. A restintion of 0.5 g was applied. The spontaneous beating rates for the right atrium were recorded by using a heart rate counter. The test compounds were added cumulatively to the bath. ED₁₅ values representing the amount of the compound which produced 15% increases of the spontaneous beating rates for the right atria were caluculated on the basis of the results obtained.

[4] = system: complete cerebral ischemia in mice; test: Protective effect on complete cerebral ischemia in mice (gasping duration after decapitation); format: in vivo; settings: 50 mg/kg, p.o., 30 minutes before decapitation; male ddY mice
Protocol: Male ddY mice weighing about 25 g were used. Complete cerebral ischemia was produced by the amputation of the cervix between the medulla oblongata and the spinal cord. The time between decapitation and the last gasp was recorded as gasping duration. Test compounds were suspended with 0.5% carboxymethylcellulose except propentofylline which was dissolved in distilled H₂O, and then administered orally 30 minutes before the decapitation. The gasping duration was evaluated at the dose of 50 mg/kg.

EC50 [1] [µM] | EC50 [2] [µM] | chronotropic activity in the isolated guinea-pig atria ED₁₅ [3] [× 10⁻⁵ M] | Structure (SMILES) | relative effectiveness of the compounds to reference B [1] | relative effectiveness of the compounds to reference A [2] | protective effect on complete cerebral iscehemia in mice gasping duration [4] [%]
0.64 | 6 | > 10 | CCCCCCn1c(=O)c2c(ncn2CC(C)=O)n(C2CC2)c1=O [Example 34, 3-Cyclopropyl-1-n-hexyl-3,7-dihydro-7-(2-oxopropyl)-1H-purine-2,6-dione] | 59 | 4.7 | 
 |  | > 10 | Cn1cnc2c1c(=O)n(CCCCC1(C)OCCO1)c(=O)n2C1CC1 [Example 38, 3-Cyclopropyl-3,7-dihydro7-methyl-1-[4-(2-methyl-1,3-dioxolan-2-yl)butyl]-1H-purine-2,6-dione] |  |  | 
 | 16 | > 10 | CCCCn1c(=O)c2c(ncn2CC2(C)OCCO2)n(C2CC2)c1=O [Example 40, 1-n-Butyl-3-cyclopropyl-3,7-dihydro-7-[(2-methyl-1,3-dioxolan-2-yl)methyl]-1H-purine-2,6-dione] |  | 1.8 | 
0.56 | 1.5 | > 10 | CCCCn1c(=O)c2c(ncn2CC(C)=O)n(C2CC2)c1=O [Example 30, 1-n-Butyl-3-cyclopropyl-3,7-dihydro-7-(2-oxopropyl)-1H-purine-2,6-dione] | 68 | 19 | 

The remaining lines, values behind:

Structure (SMILES) | EC50 [1] [µM] | EC50 [2] [µM] | chronotropic activity in the isolated guinea-pig atria ED₁₅ [3] [× 10⁻⁵ M] | relative effectiveness of the compounds to reference B [1] | relative effectiveness of the compounds to reference A [2] | protective effect on complete cerebral iscehemia in mice gasping duration [4] [%]
CCn1c(=O)c2c(ncn2CC(C)=O)n(C2CC2)c1=O [Example 26, 3-Cyclopropyl-1-ethyl-3,7-dihydro-7-(2-oxopropyl)-1H-purine-2,6-dione] | 10 | 14 |  | 3.8 | 2.0 | 
CCCCCn1cnc2c1c(=O)n(CCCCC(C)=O)c(=O)n2C1CC1 [Example 16, 3-Cyclopropyl-3,7-dihydro-1-(5-oxohexyl)-7-n-pentyl-1H-purine-2,6-dione] |  | 23 | > 10 |  | 1.2 | 107.8
CCCn1cnc2c1c(=O)n(CCCCC(C)=O)c(=O)n2C [Reference compound B, propentofylline, reference compound] | 38 |  | 5.1 | 1 |  | 106.4
CC(=O)CCCCn1cnc2c1c(=O)n(C)c(=O)n2C1CC1 [Example 25, 3-Cyclopropyl-3,7-dihydro-1-methyl-7-(5-oxohexyl)-1H-purine-2,6-dione] |  |  | > 10 |  |  | 
CC(=O)Cn1c(=O)c2c(ncn2C)n(C2CC2)c1=O [Example 3, 3-Cyclopropyl-3,7-dihydro-7-methyl-1-(2-oxopropyl)-1H-purine-2,6-dione] |  |  | > 10 |  |  | 
Cn1c(=O)c2[nH]cnc2n(C)c1=O [Reference compound A, theophylline, reference compound] |  | 28 | 7.6 |  | 1 | 
CCCCCCn1cnc2c1c(=O)n(CCCCC(C)=O)c(=O)n2C1CC1 [Example 17, 3-Cyclopropyl-7-n-hexyl-3,7-dihydro-1-(5-oxohexyl)-1H-purine-2,6-dione] | 18 | 11 | > 10 | 2.1 | 2.5 | 106.8
CCCCn1cnc2c1c(=O)n(CCCCC(C)=O)c(=O)n2C1CC1 [Example 15, 7-n-Butyl-3-cyclopropyl-3,7-dihydro-1-(5-oxohexyl)-1H-purine-2,6-dione] | 36 | 18 | > 10 | 1.1 | 1.6 | 112.3
CC(=O)CCCCn1c(=O)c2c(ncn2C)n(C2CC2)c1=O [Example 6, 3-Cyclopropyl-3,7-dihydro-7-methyl-1-(5-oxohexyl)-1H-purine-2,6-dione] | 15 |  | > 10 | 2.5 |  | 
